Reference: PubChem BioAssay (NCI)
Where “and” joins values, the source holds several entries; their conditions need not be identical. Equal entries are not always repeated.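 Protocol summary: plate cells (96-well), add compound at 5 concentrations, incubate 48 h, interpolate endpoints linearly. GI50 is the concentration that inhibits growth by half. The concentration for full growth arrest is given as TGI.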

Columns and labels:
Test in all cases: NCI anticancer screen, dose series, 48 h
786-0 renal = system: 786-0 renal
A498 renal = system: A498 renal
A549 NSCLC = system: A549 NSCLC
ACHN renal = system: ACHN renal
BT-549 breast = system: BT-549 breast
CAKI-1 renal = system: CAKI-1 renal
CCRF-CEM leukemia = system: CCRF-CEM leukemia
COLO 205 colon = system: COLO 205 colon
DU-145 prostate = system: DU-145 prostate
EKVX NSCLC = system: EKVX NSCLC
HCC-2998 colon = system: HCC-2998 colon
HCT-116 colon = system: HCT-116 colon
HCT-15 colon = system: HCT-15 colon
HL-60(TB) leukemia = system: HL-60(TB) leukemia
HOP-62 NSCLC = system: HOP-62 NSCLC
HOP-92 NSCLC = system: HOP-92 NSCLC
HS 578T breast = system: HS 578T breast
HT29 colon = system: HT29 colon
IGROV1 ovarian = system: IGROV1 ovarian
K-562 leukemia = system: K-562 leukemia
KM12 colon = system: KM12 colon
LOX IMVI melanoma = system: LOX IMVI melanoma
M14 melanoma = system: M14 melanoma
MALME-3M melanoma = system: MALME-3M melanoma
MCF7 breast = system: MCF7 breast
MDA-MB-231 breast = system: MDA-MB-231 breast
MDA-MB-435 = system: MDA-MB-435
MOLT-4 leukemia = system: MOLT-4 leukemia
NCI-H226 lung = system: NCI-H226 lung
NCI-H23 lung = system: NCI-H23 lung
NCI-H460 lung = system: NCI-H460 lung
NCI-H522 lung = system: NCI-H522 lung
NCI/ADR-RES ovarian = system: NCI/ADR-RES ovarian
OVCAR-3 ovarian = system: OVCAR-3 ovarian
OVCAR-4 ovarian = system: OVCAR-4 ovarian
OVCAR-5 ovarian = system: OVCAR-5 ovarian
OVCAR-8 ovarian = system: OVCAR-8 ovarian
PC-3 prostate = system: PC-3 prostate
RPMI-8226 leukemia = system: RPMI-8226 leukemia
RXF 393 renal = system: RXF 393 renal
SF-268 CNS = system: SF-268 CNS
SF-295 CNS = system: SF-295 CNS
SF-539 CNS = system: SF-539 CNS
SK-MEL-2 melanoma = system: SK-MEL-2 melanoma
SK-MEL-28 melanoma = system: SK-MEL-28 melanoma
SK-MEL-5 melanoma = system: SK-MEL-5 melanoma
SK-OV-3 ovarian = system: SK-OV-3 ovarian
SN12C renal = system: SN12C renal
SNB-19 CNS = system: SNB-19 CNS
SNB-75 CNS = system: SNB-75 CNS
SR leukemia = system: SR leukemia
SW-620 colon = system: SW-620 colon
T-47D breast = system: T-47D breast
TK-10 renal = system: TK-10 renal
U251 CNS = system: U251 CNS
UACC-257 melanoma = system: UACC-257 melanoma
UACC-62 melanoma = system: UACC-62 melanoma
UO-31 renal = system: UO-31 renal

For Cn1cc(-c2[nH]c3cc(NC(=O)[C@H](N)C4CCCCC4)cc4c3c2C=NNC4=O)cn1, the GI50 (786-0 renal) was 256 nM and 315 nM, the GI50 (A498 renal) was 54.2 nM and 97.5 nM and the TGI (A498 renal) was 352 nM and 579 nM. The GI50 (A549 NSCLC) was 3630 nM and 3850 nM, the TGI (A549 NSCLC) was 16900 nM and > 10000 nM and the GI50 (ACHN renal) was 419 nM and 1060 nM. The TGI (ACHN renal) was 8350 nM and > 10000 nM, the GI50 (BT-549 breast) was 215 nM and 375 nM and the TGI (BT-549 breast) was 1410 nM and 5850 nM. The GI50 (CAKI-1 renal) was 1800 nM and 705 nM, the TGI (CAKI-1 renal) was 10500 nM and > 7910 nM and the GI50 (CCRF-CEM leukemia) was 34.5 nM and 56 nM. For the same molecule, the TGI (CCRF-CEM leukemia) was 507 nM and > 3890 nM, the GI50 (COLO 205 colon) was 922 nM and 632 nM and the TGI (COLO 205 colon) was 3600 nM and > 6260 nM. For the same molecule, the GI50 (DU-145 prostate) was 508 nM and 528 nM, the TGI (DU-145 prostate) was 19800 nM and > 10000 nM and the GI50 (EKVX NSCLC) was 6830 nM and 5990 nM. The TGI (EKVX NSCLC) was 21800 nM and > 10000 nM, the GI50 (HCC-2998 colon) was 472 nM and 287 nM and the TGI (HCC-2998 colon) was 19900 nM and > 10000 nM. For the same molecule, the GI50 (HCT-116 colon) was 399 nM and 561 nM, the TGI (HCT-116 colon) was 10900 nM and > 10000 nM and the GI50 (HCT-15 colon) was 12000 nM and 5100 nM. For the same molecule, the TGI (HCT-15 colon) was > 72000 nM, the GI50 (HL-60(TB) leukemia) was 292 nM and 296 nM and the TGI (HL-60(TB) leukemia) was 775 nM and > 4210 nM. For the same molecule, the GI50 (HOP-62 NSCLC) was 401 nM and 343 nM, the TGI (HOP-62 NSCLC) was 12300 nM and > 10000 nM and the GI50 (HOP-92 NSCLC) was 78.3 nM and 200 nM. For the same molecule, the TGI (HOP-92 NSCLC) was 821 nM and > 4520 nM, the GI50 (HS 578T breast) was 185 nM and 247 nM and the TGI (HS 578T breast) was 2590 nM and 1810 nM. The GI50 (HT29 colon) was 1440 nM and 994 nM, the TGI (HT29 colon) was 8240 nM and > 10000 nM and the GI50 (IGROV1 ovarian) was 603 nM and 367 nM. For the same molecule, the TGI (IGROV1 ovarian) was 14300 nM and > 10000 nM, the GI50 (K-562 leukemia) was 193 nM and 205 nM and the TGI (K-562 leukemia) was 1780 nM and > 10000 nM. The GI50 (KM12 colon) was 1660 nM and 950 nM, the TGI (KM12 colon) was 12700 nM and > 10000 nM and the GI50 (LOX IMVI melanoma) was 305 nM and 268 nM. The TGI (LOX IMVI melanoma) was 3520 nM and 1660 nM, the GI50 (M14 melanoma) was 163 nM and 234 nM and the TGI (M14 melanoma) was 493 nM and > 4310 nM. For the same molecule, the GI50 (MALME-3M melanoma) was 2220 nM and 517 nM, the TGI (MALME-3M melanoma) was 24700 nM and > 10000 nM and the GI50 (MCF7 breast) was 211 nM and 209 nM. For the same molecule, the TGI (MCF7 breast) was 15800 nM and > 10000 nM, the GI50 (MDA-MB-231 breast) was 866 nM and 562 nM and the TGI (MDA-MB-231 breast) was 12400 nM and > 10000 nM. The GI50 (MDA-MB-435) was 245 nM and 286 nM, the TGI (MDA-MB-435) was 1230 nM and 1280 nM and the GI50 (MOLT-4 leukemia) was 287 nM and 334 nM. For the same molecule, the TGI (MOLT-4 leukemia) was 797 nM and > 6550 nM, the GI50 (NCI-H226 lung) was 963 nM and 398 nM and the TGI (NCI-H226 lung) was 17800 nM and > 10000 nM. For the same molecule, the GI50 (NCI-H23 lung) was 267 nM and 197 nM, the TGI (NCI-H23 lung) was 9520 nM and > 10000 nM and the GI50 (NCI-H460 lung) was 4110 nM and 3590 nM. The TGI (NCI-H460 lung) was 19900 nM and > 10000 nM, the GI50 (NCI-H522 lung) was 352 nM and 222 nM and the TGI (NCI-H522 lung) was 1960 nM and 2770 nM. The GI50 (NCI/ADR-RES ovarian) was 9800 nM, the TGI (NCI/ADR-RES ovarian) was > 74400 nM and the GI50 (OVCAR-3 ovarian) was 229 nM and 144 nM. For the same molecule, the TGI (OVCAR-3 ovarian) was 3020 nM and 3730 nM, the GI50 (OVCAR-4 ovarian) was 184 nM and 217 nM and the TGI (OVCAR-4 ovarian) was 10500 nM and > 10000 nM. For the same molecule, the GI50 (OVCAR-5 ovarian) was 1280 nM and 644 nM, the TGI (OVCAR-5 ovarian) was 15800 nM and > 10000 nM and the GI50 (OVCAR-8 ovarian) was 264 nM and 351 nM. For the same molecule, the TGI (OVCAR-8 ovarian) was 4080 nM and > 10000 nM, the GI50 (PC-3 prostate) was 720 nM and 1960 nM and the TGI (PC-3 prostate) was 18300 nM and > 10000 nM. For the same molecule, the GI50 (RPMI-8226 leukemia) was 3180 nM and 3240 nM, the TGI (RPMI-8226 leukemia) was 11500 nM and > 10000 nM and the GI50 (RXF 393 renal) was 104 nM and 187 nM. For the same molecule, the TGI (RXF 393 renal) was 502 nM and 745 nM, the GI50 (SF-268 CNS) was 305 nM and 324 nM and the TGI (SF-268 CNS) was 13100 nM and > 10000 nM. For the same molecule, the GI50 (SF-295 CNS) was 273 nM and 318 nM, the GI50 (SF-539 CNS) was 118 nM and 109 nM and the TGI (SF-539 CNS) was 670 nM and 628 nM. For the same molecule, the GI50 (SK-MEL-2 melanoma) was 262 nM, the TGI (SK-MEL-2 melanoma) was > 10000 nM and the GI50 (SK-MEL-28 melanoma) was 7990 nM. The TGI (SK-MEL-28 melanoma) was 21900 nM and > 10000 nM, the GI50 (SK-MEL-5 melanoma) was 696 nM and 550 nM and the TGI (SK-MEL-5 melanoma) was 13100 nM and > 10000 nM. For the same molecule, the GI50 (SK-OV-3 ovarian) was 302 nM and 309 nM, the TGI (SK-OV-3 ovarian) was 11400 nM and > 10000 nM and the GI50 (SN12C renal) was 560 nM and 550 nM. The TGI (SN12C renal) was 13400 nM and > 10000 nM, the GI50 (SNB-19 CNS) was 650 nM and 470 nM and the TGI (SNB-19 CNS) was 19700 nM and > 10000 nM. The GI50 (SNB-75 CNS) was 339 nM and 311 nM, the TGI (SNB-75 CNS) was 1880 nM and 1840 nM and the GI50 (SR leukemia) was 56.6 nM and 120 nM. The TGI (SR leukemia) was 622 nM and 1100 nM, the GI50 (SW-620 colon) was 530 nM and 829 nM and the TGI (SW-620 colon) was 13600 nM and > 10000 nM. The GI50 (T-47D breast) was 15000 nM, the TGI (T-47D breast) was 31300 nM and the GI50 (TK-10 renal) was 675 nM and 467 nM. The TGI (TK-10 renal) was 12700 nM and > 10000 nM, the GI50 (U251 CNS) was 418 nM and 415 nM and the TGI (U251 CNS) was 12900 nM and > 10000 nM. For the same molecule, the GI50 (UACC-257 melanoma) was 4160 nM and > 6970 nM, the TGI (UACC-257 melanoma) was 18800 nM and > 10000 nM and the GI50 (UACC-62 melanoma) was 484 nM and 704 nM. The TGI (UACC-62 melanoma) was 18700 nM and > 10000 nM, the GI50 (UO-31 renal) was 2540 nM and 2350 nM and the TGI (UO-31 renal) was 9070 nM and > 10000 nM.
